25 molecules from patent US8242117B2, “5-membered heterocycle-based p38 kinase inhibitors” (Novartis AG, priority 2003, dated 2012) can be followed below.

The target in this assay is T1, p38α kinase (Homo sapiens, UniProt Q16539).
T1 construct: purchased Upstate
As to the kind of experiment: p38α assay (ADP release coupled to NADH oxidation). Format: biochemical. The following applies: 60 min preincubation, 0.15 mM ATP, 20 nM p38α kinase. The procedure: cDNAs of human p38α and β were cloned by PCR. The α and β cDNAs were subcloned into DEST2 plasmid (Gateway, InVitrogen). His6-p38 fusion protein was expressed in E. coli and purified from bacterial lysates by affinity chromatography using Ni^+2-NTA-agarose. His6-p38 protein was activated by incubating with constitutively active MKK6. Active p38 was separated from MKK6 by affinity chromatography. Constitutively active MKK6 was generated in a manner similar to Raingeaud et al. [Mol. Cell. Biol., 1247-1255 (1996)].
The p38α assay employed is based on measurement of ADP released in the reaction of interest through NADH oxidation obtained by coupling with pyruvate kinase and lactate dehydrogenase reactions. The assays were performed in 384-well UV-plates. The final volume was 25 μL prepared from the addition of 2.5 μL compound dissolved in 10% DMSO, 17.5 μL of assay buffer and 5 μL of ATP. Assay buffer contains the following reagents to give final concentration in the assay: 25 mM HEPES, 20 mM 2-glycerophosphate, pH 7.6, 10 mM MgCl2, 0.1 mM sodium orthovanadate, 0.5 mM phosphoenolpyruvate, 0.12 mM NADH, 3.1 mg/ml LDH, 6.67 mg/ml pyruvate kinase, 0.25 mM peptide substrate, 2 mM DTT, 0.005% Tween 80 and 20 nM p38α kinase from Upstate. Test compounds are preincubated zith p38α kinase for 60 min and the reaction started by addition of ATP to 0.15 mM final concentration. Reaction rates were measured at 340 nm using SpectraMax plate-reading spectrophotometer for 10 min at 37° C. Inhibition data were analyzed by non-linear least-squares regression using SigmaPlot.

Structures are written as SMILES.

T1 sequence (Q16539 whole entry): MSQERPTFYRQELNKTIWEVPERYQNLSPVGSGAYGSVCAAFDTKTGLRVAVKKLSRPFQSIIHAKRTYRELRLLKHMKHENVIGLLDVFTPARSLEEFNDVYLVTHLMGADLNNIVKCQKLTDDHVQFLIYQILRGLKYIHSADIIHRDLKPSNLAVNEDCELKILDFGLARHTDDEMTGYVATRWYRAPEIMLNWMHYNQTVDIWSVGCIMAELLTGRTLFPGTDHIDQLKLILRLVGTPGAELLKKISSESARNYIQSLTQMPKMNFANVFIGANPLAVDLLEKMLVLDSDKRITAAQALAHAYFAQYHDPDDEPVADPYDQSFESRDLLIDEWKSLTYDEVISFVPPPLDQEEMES

By IC50 is commonly meant the concentration needed to halve the response being measured. Low values mean greater potency in that assay, high ones weaker potency in that assay. In turn, `CONC(=O)c1ccc(C)c(-n2ncc(C(=O)c3cccc(I)c3)c2N)c1` [Example 1, 3-[5-Amino-4-(3-iodo-benzoyl)-pyrazol-1-yl]-N-methoxy-4-methyl-benzamide] had an IC50 of less than 1 µM. `CONC(=O)c1ccc(C)c(-n2ncc(C(=O)c3ccccc3)c2N)c1` [Example 2, 3-(5-Amino-4-benzoyl-pyrazol-1-yl)-N-methoxy-4-methyl-benzamide] came in with an IC50 of less than 1 µM.

`Cc1ccc(C(=O)O)cc1-n1ncc(C(=O)c2ccccc2)c1N` [Example 3, 3-(5-amino-4-benzoyl-pyrazol-1-yl)-4-methyl-benzoic acid] had an IC50 of 1 to 10 µM. Molecule `Cc1ccc(C(=O)NC2CC2)cc1-n1ncc(C(=O)c2ccccc2)c1N` [Example 4, 3-(5-amino-4-benzoyl-pyrazol-1-yl)-N-cyclopropyl-4-methyl-benzamide] registered an IC50 of less than 1 µM. Under `Cc1ccc(C(=O)O)cc1-n1ncc(C(=O)c2cccc(I)c2)c1N` [Example 5, 3-[5-amino-4-(3-iodo-benzoyl)-pyrazol-1-yl]-4-methyl-benzoic acid] stands 1 to 10 µM; under `Cc1ccc(C(=O)NC2CC2)cc1-n1ncc(C(=O)c2cccc(I)c2)c1N` [Example 6, 3-[5-amino-4-(3-iodo-benzoyl)-pyrazol-1-yl]-N-cyclopropyl-4-methyl-benzamide], less than 1 µM. Under `Cc1ccc(-c2nnc[nH]2)cc1-n1ncc(C(=O)c2ccccc2)c1N` [Example 7, {5-amino-1-[2-methyl-5-(4H-[1,2,4]triazol-3-yl)-phenyl]-1H-pyrazol-4-yl}-phenyl-methanone] stands less than 1 µM. Under `Cc1ccc(C(=O)NC2CC2)cc1-n1ncc(C(=O)c2cccc(C3OCCO3)c2)c1N` [Example 8, 3-[5-amino-4-(3-[1,3]dioxolan-2-yl-benzoyl)-pyrazol-1-yl]-N-cyclopropyl-4-methyl-benzamide] stands less than 1 µM; under `Cc1ccc(C(=O)NC2CC2)cc1-n1ncc(C(=O)c2cccc(C=O)c2)c1N` [Example 9, 3-[5-amino-4-(3-formyl-benzoyl)-pyrazol-1-yl]-N-cyclopropyl-4-methyl-benzamide], less than 1 µM; under `Cc1ccc(C(=O)NC2CC2)cc1-n1ncc(C(=O)c2cccc(CO)c2)c1N` [Example 10, 3-[5-amino-4-(3-hydroxymethyl-benzoyl)-pyrazol-1-yl]-N-cyclopropyl-4-methyl-benzamide], less than 1 µM. `Cc1ccc(C(=O)NC2CC2)cc1-n1cnc(C(=O)C2CCCCC2)c1N` [Example 18, 3-(5-Amino-4-cyclohexanecarbonyl-imidazol-1-yl)-N-cyclopropyl-4-methyl-benzamide] displayed an IC50 of less than 1 µM. Next, `Cc1ccc(C(=O)NC2CC2)cc1-n1cnc(C(=O)C2CCOCC2)c1N` [Example 29, 3-[5-Amino-4-(tetrahydro-pyran-4-carbonyl)-imidazol-1-yl]-N-cyclopropyl-4-methyl-benzamide]: less than 1 µM; `COc1nn(-c2cc(C(=O)NC3CC3)ccc2C)c(N)c1C(=O)c1ccccc1` [Example 30, 3-(5-amino-4-benzoyl-3-methoxy-pyrazol-1-yl)-N-cyclopropyl-4-methyl-benzamide]: less than 1 µM; `Cc1ccc(C(=O)NC2CC2)cc1-n1nc(OCCOCc2ccccc2)c(C(=O)c2ccccc2)c1N` [Example 33, 3-[5-amino-4-benzoyl-3-(2-benzyloxy-ethoxy)-pyrazol-1-yl]-N-cyclopropyl-4-methyl-benzamide]: less than 1 µM.

Turning to `Cc1ccc(C(=O)NC2CC2)cc1-n1nc(OC2CCN(C(=O)OC(C)(C)C)CC2)c(C(=O)c2ccccc2)c1N` [Example 34, 4-[5-amino-4-benzoyl-1-(5-cyclopropylcarbamoyl-2-methyl-phenyl)-1H-pyrazol-3-yloxy]-piperidine-1-carboxylic acid tert-butyl ester], the IC50 was less than 1 µM.

On to `CCOC(=O)c1cnn(-c2cc(C(=O)NC3CC3)ccc2C)c1N` [Example 48, 5-Amino-1-(5-cyclopropylcarbamoyl-2-methyl-phenyl)-1H-pyrazole-4-carboxylic acid ethyl ester], for which the half-inhibitory concentration (IC50) was less than 1 µM. Next, `CCOC(=O)c1c(C)nn(-c2cc(C(=O)NC3CC3)ccc2C)c1N` [Example 49, 5-Amino-1-(5-cyclopropylcarbamoyl-2-methyl-phenyl)-3-methyl-1H-pyrazole-4-carboxylic acid ethyl ester]: less than 1 µM; `CCOC(=O)c1c(OCC(=O)NCc2cccc(Cl)c2)nn(-c2cc(C(=O)NC3CC3)ccc2C)c1N` [Example 50, 5-Amino-3-[(3-chloro-benzylcarbamoyl)-methoxy]-1-(5-cyclopropylcarbamoyl-2-methyl-phenyl)-1H-pyrazole-4-carboxylic acid ethyl ester]: less than 1 µM. Under `Cc1ccc(C(=O)NC2CC2)cc1-n1ncc(C(=O)c2cccc(C#N)c2)c1N` [Example 52, 3-[5-Amino-4-(3-cyanobenzoyl)-pyrazol-1-yl]-N-cyclopropyl-4-methylbenzamide] stands less than 1 µM. With `Cc1ccc(C(=O)NC2CC2)cc1-n1ncc(C(=O)c2cccc(-c3nnco3)c2)c1N` [Example 53, 3-[5-Amino-4-(3-[1,3,4]oxadiazol-2-yl-benzoyl)-pyrazol-1-yl]-N-cyclopropyl-4-methylbenzamide], the IC50 was less than 1 µM.

The molecule `Cc1ccc(C(=O)NC2CC2)cc1-n1cnc(C(=O)c2ccccn2)c1N` [Example 76, 3-[5-Amino-4-(pyridine-2-carbonyl)-imidazol-1-yl]-N-cyclopropyl-4-methyl-benzamide] displayed an IC50 of less than 1 µM. Next, `Cc1ccc(C(=O)NC2CC2)cc1-n1cnc(C(=O)c2ccc3c(c2)OCO3)c1N` [Example 87, 3-[5-Amino-4-(benzo[1,3]dioxole-5-carbonyl)-imidazol-1-yl]-N-cyclopropyl-4-methyl-benzamide]: less than 1 µM.

Turning to `Cc1ccc(C(=O)NC2CC2)cc1-n1ncc(C(=O)NC2CCCCC2C)c1N` (stereo not shown) [Example 128, 5-Amino-1-(5-cyclopropylcarbamoyl-2-methyl-phenyl)-1H-pyrazole-4-carboxylic acid (2-methyl-cyclohexyl)-amide], the IC50 was less than 1 µM. Under `Cc1ccc(C(=O)NC2CC2)cc1-n1ncc(C(=O)NC2CCc3ccccc32)c1N` (stereo not shown) [Example 135, 5-Amino-1-(5-cyclopropylcarbamoyl-2-methyl-phenyl)-1H-pyrazole-4-carboxylic acid indan-1-ylamide] stands less than 1 µM.

For `Cc1ccc(C(=O)NC2CC2)cc1-n1ncc(C(=O)c2cccc(OCC(O)CO)c2)c1N` (stereo not shown) [Example 171, 3-{5-Amino-4-[3-(2,3-dihydroxy-propoxy)-benzoyl]-pyrazol-1-yl}-N-cyclopropyl-4-methylbenzamide], the IC50 is less than 1 µM.
